According to patent US20260007639A1, “COMPOUNDS FOR THE TREATMENT OF NEUROMUSCULAR DISORDERS” (NMD PHARMA A/S, priority 2017, published 2026):
Where two headings read alike, the source gives them in different places.

Key:
rats [1] = assay: Rotarod running performance of rats after I.P. tubocurarine (myasthenia like phenotype); assay type: in vivo, rat; conditions: C8 20 mg/kg I.P. 2 hrs before tubocurarine 0.13 mg/kg I.P.; tested 21 minutes after tubocurarine
Experimental: FIG. 9A illustrates the design of the experiments. Prior to Day One the animals had been familiarized to the rotarod in three training sessions distributed over two days.
(§1) In both series of experiments, running performance was tested on a rotarod using a protocol where the rod was accelerated gradually over a 5 min period, and the running time and covered distance before falling off the rod were measured.
Experiments with tubocurarine were carried out over two days, and on each day the effect of tubocurarine on running performance was tested. On the first day only tubocurarine was injected. […] On the second day, the animals were first allowed to run on the rotarod, and all animals performed normally. […] The allocation of the animals into the two groups (C8 or sham) was random and unknown to the experimenter (blinded experimental design).
In the first series of in vivo experiments, myasthenia gravis was simply mimicked by I.P. injection of tubocurarine (0.13 mg/kg) in animals that had been familiarized to running on the rotarod. On the first of two consecutive days, tubocurarine was injected I.P. and the running performance of the animal was tested 21 minutes after this injection. On the second day of experimentation, the animals first performed a test run to ensure that they were no longer affected by the tubocurarine injected the day before. […]

rats [2] = assay: Rotarod running performance in passive myasthenia gravis induced in rats with MAB35 monoclonal antibody; assay type: in vivo, rat; conditions: rats with stable reduction in performance after MAB35, versus sham
Experimental: Prior to I.P. injection of MAB35 the animals had been familiarized to the rotarod over three training sessions distributed over two days. […] After this treatment performance was monitored every second hour. * Indicates significant different as evaluated using student t-test.
as §1
In experiments with MAB35, animals were first familiarized with the rotarod over two consecutive days and then injected I.P. with MAB35. After injection, rotarod performance was then again monitored regularly over the consecutive two days. […] A considerable number of animals, however, became moribund failing to walk and they had altered ventilation (rapid) and pronounced ptosis. These animals were not included in experiments.
In the last series of experiments, myasthenia gravis was mimicked in rats by inducing an immunological reaction against the motor endplate of muscle fibers using monoclonal antibody against the nicotinic ACh receptor in muscle fibers. Again the animals had been familiarized to the rotarod before the MAB35 injection. […] From FIG. 10 it can be seen that upon injection sham treatment the performance further declined.

rat soleus muscle = assay type: cell-based; conditions: μ-conotoxin GiiiB present
rat soleus muscles [3] = assay: Recovery of nerve-stimulated force in isolated rat soleus muscles with ACh receptors inhibited by 2 μM rocuronium; conditions: 50 μM C8 added in the presence of 2 μM rocuronium; 8 muscles; p<0.01
Experimental: In a separate series of experiments with 8 isolated rat soleus muscles, ACh receptors were inhibited using 2 μM rocuronium, which is a clinically used neuromuscular blocking agent. Under these conditions the nerve-stimulated force was reduced to 51±5% of force before rocuronium. […] This illustrates the potential of these compounds to be used as reversal agents.

rat soleus muscles [4] = assay: Tubocurarine concentration required to depress nerve-stimulated force by 50% (Kd,tub), combination with neostigmine or pyridostigmine (Table 4); conditions: pre-incubation with 50 μM C8, 10 nM neostigmine or both
Experimental: Muscles from 4-week-old rats were stimulated to contract by activating the motor nerve with short duration pulses in field stimulation. Muscles contracted every 10 min for 2 s in response to 30 Hz stimulation. Four different experimental conditions were used. […] After this pre-incubation, increasing concentrations of tubocurarine were added to the bath solutions with 60 min (corresponding to six contractions) between each increase in tubocurarine. […] FIG. 5C similar to FIG. 5A but this muscle had been pre-incubated with neostigmine. […] The force integral (AUC) was determined at each tubocurarine concentration. Such AUC determinations were plotted against tubocurarine concentration for each muscle.
CIC-1 is a novel target in treatment of neuromuscular complications and it was therefore explored whether this approach for symptomatic treatment could be used in combination with existing symptomatic treatment approaches. […] To quantify the effect of compounds on tubocurarine sensitivity, the force at the different tubocurarine concentrations was determined. In plots of nerve-stimulated force against tubocurarine concentration (FIG. 5E) Kd, tub was determined by fitting four parameter sigmoidal functions to the data and the Kd, tub for the different compounds have been collected in Table 4.

[5] = Pharmacokinetic analysis of a single I.P. dose of C8 in rats (Table 6); assay type: in vivo, Sprague-Dawley rats; conditions: one-bolus I.P. injection
Experimental: This part of the study was performed by Pipeline Biotech A/S (Spørring, Denmark). […] Plasma concentrations (free and bound) were determined by OnTarget Chemistry (Uppsala, Sweden, Project No.: PB243-001).
Before conducting in vivo experiments with animal models of myasthenia gravis, some pharmacokinetic details were obtained for C8 in response to one-bolus I.P. injection.

rat soleus muscles [6] = assay: Recovery of nerve-stimulated force in isolated rat soleus muscles exposed to sub-maximal tubocurarine (Table 1); conditions: % change in AUC compared to AUC before addition, after 40 min in tubocurarine
Experimental: The motor nerve was stimulated every 10 min for 2 s with 30 Hz with field stimulation using short duration pulses. […] Traces are shown before addition tubocurarine, after 40 min with tubocurarine, and after 110 min tubocurarine. […] This recovery of force was used in Table 1.
Experiments were performed using rat soleus muscles from either young (4-wk-old) or adult Wistar rats (12-14-week-old). Animal handling, killing and isolation of muscle is described elsewhere All experiments were performed using normal Krebs-Ringer bicarbonate solution (NKR). In solutions with elevated Mg^2+, MgCl^2 was added to NKR-solution causing minor increases in osmolarity and ionic strength. In solutions with elevated K^+, 4 mM NaCl was replaced by 4 mM KCl in the NKR.
In all contraction experiments, isometric force production was determined and force produced during contractions was quantified by measuring the integral of the force response (AUC). Stimulation and force recordings have been described elsewhere. […] In these latter experiments, extracellular recordings of action potentials (M-waves) could be measured without temporal overlap with stimulation artefacts.
The aim was to find compounds that by inhibition of CIC-1 channels can recover nerve-stimulated force under conditions of fatigue including conditions where fatigue is caused by compromised neuromuscular transmission. Neuromuscular transmission dysfunction can develop because of both pre- and/or post-synaptic complications in connection with a disorder or as part of neuromuscular blockade during/after surgery. In the initial series of drug testing, experiments were performed with isolated muscles in the presence of sub-maximal ACh receptor antagonist tubocurarine. Since the inclusion of tubocurarine caused a partial loss of neuromuscular transmission this experiment mimics the conditions in myasthenia gravis and neuromuscular blockade. To mimic conditions with pre-synaptic complication (Lambert Eaton syndrome, motor neuron disorder, polyneuropathy) the intact nerve-muscle preparations were incubated at elevated extracellular Mg^2+, which is known to suppress release of ACh from nerve terminals of motor neurons. […]
For comparison with the muscle only exposed to tubocurarine (grey trace), the two traces have been overlaid. […] For comparison, muscles only exposed to tubocurarine have been included. The dotted line indicates the recovery of force with C8 when compared to the force production before its addition. This value was used in Table 1 for evaluation of the efficacy of the different compounds in recovering force.

rat soleus muscles [7] = assay: Recovery of nerve-stimulated force in isolated rat soleus muscles exposed to 3.5 mM Mg2+ (Table 2); conditions: rat soleus exposed to 3.5 mM Mg2+, force before addition 38 ± 6 % of control
human muscles = conditions: 150 μM C8; isolated human muscle

Structure (SMILES): C[C@H](Oc1ccc(Br)cc1)C(=O)O [Compound C8, (2S)-2-(4-bromophenoxy)propanoic acid]
- increase in running performance (distance on rotarod) on the second day compared to the first day (rats [1]): around 150%
- rotarod running performance after treatment (rats [2]; C8 20 mg/kg): decline was reduced
- rotarod running performance after treatment (rats [2]; C8 30 mg/kg): clear recovery of performance
- EPP amplitude compared to control conditions (rat soleus muscle; 10 μM C8): significantly larger EPPs
- EPP amplitude compared to control conditions (rat soleus muscle; 25 μM C8): significantly larger EPPs
- nerve-stimulated contractile force, % of force before rocuronium (rat soleus muscles [3]): 81±4%
- nerve-stimulated force at different tubocurarine concentrations compared to control (rat soleus muscles [4]): elevated nerve-stimulated force
- AUC 0-inf_obs [5]: 205.381 µg·h/mL
- AUC 0-t [5]: 203.635 µg·h/mL
- C0 [5]: 24533 ng/mL
- CI_obs [5]: 48.69 mL/h
- Cmax [5]: 44600 ng/mL
- Tmax [5]: 0.5 h
- VD_obs [5]: 259.62 mL
- t1/2 [5]: 3.70 h
- 50 μM % change after addition (AUC force) (rat soleus muscles [6]; 50 μM compound): 16%
- 150 μM % change after addition (AUC force) (rat soleus muscles [6]; 150 μM compound): 23%
- 50 μM % change after addition (AUC force) (rat soleus muscles [7]; 50 μM compound): 13 ± 4%
- 100 μM % change after addition (AUC force) (rat soleus muscles [7]; 100 μM compound): 26 ± 5%
- contractile force at elevated K+ and TTX (human muscles): markedly recovery
